The record followed here is patent US20080015237A1 (ASTRAZENECA AB, priority 2006, published 2008).

The structures appear in SMILES notation.

Chain of human Kv1.5 channel (P22460 whole entry): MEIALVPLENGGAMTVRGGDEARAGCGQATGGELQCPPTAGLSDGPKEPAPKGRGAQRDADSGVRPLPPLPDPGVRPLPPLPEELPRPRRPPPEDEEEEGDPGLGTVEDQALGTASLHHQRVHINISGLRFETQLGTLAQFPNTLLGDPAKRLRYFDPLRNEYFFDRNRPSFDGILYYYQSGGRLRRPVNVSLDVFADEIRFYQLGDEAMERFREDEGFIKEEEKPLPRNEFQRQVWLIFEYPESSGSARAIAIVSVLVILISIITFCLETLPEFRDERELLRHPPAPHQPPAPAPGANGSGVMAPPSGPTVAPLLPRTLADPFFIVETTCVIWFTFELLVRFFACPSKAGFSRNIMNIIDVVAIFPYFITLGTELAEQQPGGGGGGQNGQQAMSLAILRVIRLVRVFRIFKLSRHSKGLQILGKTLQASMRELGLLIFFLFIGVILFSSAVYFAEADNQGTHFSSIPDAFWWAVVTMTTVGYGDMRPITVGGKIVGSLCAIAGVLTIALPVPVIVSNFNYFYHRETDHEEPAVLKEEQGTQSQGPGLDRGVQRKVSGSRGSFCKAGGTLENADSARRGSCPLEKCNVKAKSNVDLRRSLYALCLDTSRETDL

The target in the assay is human Kv1.5 channel (Homo sapiens, UniProt P22460). Description: Test A: Rb+ efflux assay. The format is cell-based. The following applies: CHO cells stably transfected with cDNA for human Kv1.5. The protocol:
This assay identifies compounds that block the human Kv1.5 channel potassium channel heterologously expressed in Chinese Hamster Ovary (CHO) cells by means of Rb+ ion efflux using Flame Atomic Absorption Spectroscopy. For experimental studies, CHO cells stably transfected with cDNA for human Kv1.5 were grown as confluent layers in Falcon, 384-well tissue culture-treated black-walled clear-bottomed plates and the plates were incubated overnight at 37° C. in a cell culture incubator.
After incubating overnight the cell plates were washed and a buffer containing Rb+ ions were added to the cell plates. The plates were then incubated for another 3-4 hours in a CO2-incubator (37° C.). Following this incubation period plates were washed, compounds were added and subsequently a buffer containing elevated K+ concentrations were added in order to activate the Kv1.5 channel. Following a short incubation time, aliquots of the supernatants were transferred to supernatant plates for subsequent determination of the Rb+ content using Atomic Absorption Spectrometry (ICR8000 instrument, Aurora Biomed Inc.).
In the case of `O=C(NCc1ccccc1)C1c2cc(F)ccc2C(=O)N1Cc1ccccc1C(F)(F)F` (stereo not drawn) [N-benzyl-6-fluoro-3-oxo-2-[2-(trifluoromethyl)benzyl]isoindoline-1-carboxamide], half-maximal inhibition (IC50) was put at 1400 nM.

Consider `O=C(NCCCC(F)(F)F)C1c2ccccc2C(=O)N1Cc1ccccc1-c1ccccc1` (stereo not drawn) [2-(biphenyl-2-ylmethyl)-3-oxo-N-(4,4,4-trifluorobutyl)isoindoline-1-carboxamide], for which 1500 nM corresponded to half-maximal inhibition (IC50). The IC50 values of the last two compounds are within 1.5-fold of each other.

On to `CC(C)(C)NC(=O)C1c2ccccc2C(=O)N1Cc1cc(F)ccc1-c1ccc(F)cc1` (stereo not drawn) [N-(tert-butyl)-2-[(4,4′-difluorobiphenyl-2-yl)methyl]-3-oxoisoindoline-1-carboxamide], for which it took 5600 nM to reach half-maximal inhibition (IC50). Against the preceding compound, the IC50 is about 3.7-fold higher.

Compound `COc1ccc2c(c1)C(=O)N(CC(C)c1ccc(Cl)cc1)C2C(=O)NCc1ccccc1` (stereo not drawn) [N-benzyl-2-[2-(4-chlorophenyl)propyl]-5-methoxy-3-oxoisoindoline-1-carboxamide] had an IC50 of 710 nM. This IC50 is about 7.9-fold lower than that of the compound before.

Regarding `O=C(NCc1ccc(C(F)(F)F)nc1)C1c2cc(Cl)ccc2C(=O)N1Cc1ccccc1-c1ccccc1` (stereo not drawn) [2-(biphenyl-2-ylmethyl)-6-chloro-3-oxo-N-{[6-(trifluoromethyl)pyridin-3-yl]methyl}isoindoline-1-carboxamide], the half-maximal inhibitory concentration (IC50) is 1500 nM. This IC50 is about 2.1-fold higher than that of the compound before.

For `COc1ccc2c(c1C)C(=O)N(Cc1ccccc1-c1ccccc1)C2C(=O)NC(C)(C)C` (stereo not drawn) [2-(biphenyl-2-ylmethyl)-N-(tert-butyl)-5-methoxy-4-methyl-3-oxoisoindoline-1-carboxamide], half-maximal inhibition (IC50) was put at 2200 nM.

The compound `CC(C)(C)NC(=O)C1c2cc(Cl)ccc2C(=O)N1C(c1ccccc1)c1ccccc1` (stereo not drawn) [N-(tert-butyl)-6-chloro-2-(diphenylmethyl)-3-oxoisoindoline-1-carboxamide] returned a half-inhibitory concentration (IC50) of 2800 nM.

`CC(C)(C)CN1C(=O)c2ccccc2C1C(=O)NCc1cccc(OC(F)F)c1` (stereo not drawn) [N-[3-(difluoromethoxy)benzyl]-2-(2,2-dimethylpropyl)-3-oxoisoindoline-1-carboxamide] had an IC50 of 1300 nM.

`CC(CN1C(=O)c2ccc(Cl)cc2C1C(=O)NCc1cccnc1)c1ccc(Cl)cc1` (stereo not drawn) [6-chloro-2-[2-(4-chlorophenyl)propyl]-3-oxo-N-(pyridin-3-ylmethyl)isoindoline-1-carboxamide] registered an IC50 of 680 nM.

On to `C[C@H](c1ccccc1)N1C(=O)c2ccc(Cl)cc2C1C(=O)NCc1ccccc1` (stereo partly drawn) [N-benzyl-6-chloro-3-oxo-2-[(1R)-1-phenylethyl]isoindoline-1-carboxamide], for which half-maximal inhibition (IC50) required 550 nM.

Regarding `CC(CN1C(=O)c2ccccc2C1C(=O)NCCCC(F)(F)F)c1ccc(Cl)cc1` (stereo not drawn) [2-[2-(4-chlorophenyl)propyl]-3-oxo-N-(4,4,4-trifluorobutyl)isoindoline-1-carboxamide], the IC50 came out at 1800 nM.

With `O=C(NCc1ccccc1)C1c2ccccc2C(=O)N1CCC1=CCCCC1` (stereo not drawn) [N-benzyl-2-(2-cyclohex-1-en-1-ylethyl)-3-oxoisoindoline-1-carboxamide], the IC50 was 1800 nM.

Compound `O=C(NCc1ccccc1)C1c2cc(Br)ccc2C(=O)N1Cc1ccccc1` (stereo not drawn) [N,2-dibenzyl-6-bromo-3-oxoisoindoline-1-carboxamide] came in with an IC50 of 840 nM.

`CC(C)(CO)CN1C(=O)c2ccc(F)cc2C1C(=O)NCc1cccc(Cl)c1` (stereo not drawn) [N-(3-chlorobenzyl)-6-fluoro-2-(3-hydroxy-2,2-dimethylpropyl)-3-oxoisoindoline-1-carboxamide] returned a half-inhibitory concentration (IC50) of 340 nM. Compared with the last compound, the IC50 is about 2.5-fold lower.

With `CCCCNC(=O)C1c2cc(F)ccc2C(=O)N1CC(C)c1ccc(Cl)cc1` (single isomer, unassigned) [(1R or 1S)-N-butyl-2-[(2R or 2S)-2-(4-chlorophenyl)propyl]-6-fluoro-3-oxoisoindoline-1-carboxamide], the IC50 came to 500 nM.

As for `CC(c1ccccc1)N1C(=O)c2ccccc2C1C(=O)NCc1ccccc1` (stereo not drawn) [N-benzyl-3-oxo-2-(1-phenylethyl)isoindoline-1-carboxamide], 6000 nM corresponded to half-maximal inhibition (IC50).

Compound `CCNC(=O)C1c2cc(Cl)ccc2C(=O)N1Cc1ccccc1-c1ccccc1` (stereo not drawn) [2-(biphenyl-2-ylmethyl)-6-chloro-N-ethyl-3-oxoisoindoline-1-carboxamide] came in with an IC50 of 1000 nM.

`CC(C)(CO)CN1C(=O)c2ccc(Cl)cc2C1C(=O)NCc1cccc(Cl)c1` (stereo not drawn) [6-chloro-N-(3-chlorobenzyl)-2-(3-hydroxy-2,2-dimethylpropyl)-3-oxoisoindoline-1-carboxamide] displayed an IC50 of 2100 nM.

`O=C(NCc1ccccc1)C1c2ccccc2C(=O)N1CCc1ccc(Cl)cc1` (stereo not drawn) [N-benzyl-2-[2-(4-chlorophenyl)ethyl]-3-oxoisoindoline-1-carboxamide] returned an IC50 of 560 nM. This IC50 lies about 3.8-fold lower than the previous one.

Regarding `CC(C)(C)NC(=O)C1c2ccccc2C(=O)N1Cc1ccccc1-c1ccc(F)c(F)c1` (stereo not drawn) [N-(tert-butyl)-2-[(3′,4′-difluorobiphenyl-2-yl)methyl]-3-oxoisoindoline-1-carboxamide], the midpoint of inhibition, the IC50, lay at 2200 nM.

In turn, `CC(C)(C)NC(=O)C1c2cc(Br)ccc2C(=O)N1Cc1ccccc1-c1ccccc1` (stereo not drawn) [2-(biphenyl-2-ylmethyl)-6-bromo-N-(tert-butyl)-3-oxoisoindoline-1-carboxamide] returned an IC50 of 2400 nM. The IC50 values of the last two compounds are within 1.5-fold of each other.

With `CC(C)(C)CN1C(=O)c2ccccc2C1C(=O)NCc1ccc(Cl)c(Cl)c1` (stereo not drawn) [N-(3,4-dichlorobenzyl)-2-(2,2-dimethylpropyl)-3-oxoisoindoline-1-carboxamide], the IC50 was 2500 nM.

Turning to `CC(C)(C)NC(=O)C1c2ccccc2C(=O)N1Cc1cc(F)ccc1-c1ccccc1` (stereo not drawn) [N-(tert-butyl)-2-[(4-fluorobiphenyl-2-yl)methyl]-3-oxoisoindoline-1-carboxamide], the IC50 was found to be 5200 nM.

As for `Cc1c(OCF)ccc2c1C(=O)N(CC(C)c1ccc(Cl)cc1)C2C(=O)NC(C)(C)C` (stereo not drawn) [N-(tert-butyl)-2-[2-(4-chlorophenyl)propyl]-5-(fluoromethoxy)-4-methyl-3-oxoisoindoline-1-carboxamide], the midpoint of inhibition, the IC50, lay at 3000 nM.

`CC(CN1C(=O)c2ccc(Cl)cc2C1C(=O)NC(C)(C)C)c1ccc(Cl)cc1` (stereo not drawn) [N-(tert-butyl)-6-chloro-2-[2-(4-chlorophenyl)propyl]-3-oxoisoindoline-1-carboxamide] gave an IC50 of 910 nM.

In turn, `CC(CN1C(=O)c2ccccc2C1C(=O)NCc1ccc(N(C)C)cc1)c1ccc(Cl)cc1` (stereo not drawn) [2-[2-(4-chlorophenyl)propyl]-N-[4-(dimethylamino)benzyl]-3-oxoisoindoline-1-carboxamide] displayed an IC50 of 1800 nM.

Take `CNC(=O)C1c2cc(Br)ccc2C(=O)N1Cc1ccccc1C1CCCC1` (stereo not drawn) [6-bromo-2-(2-cyclopentylbenzyl)-N-methyl-3-oxoisoindoline-1-carboxamide]: half-maximal inhibition (IC50) required 2700 nM. Against the preceding compound, the IC50 is about 1.5-fold higher.

`O=C(NCc1ccc(F)cc1)C1c2ccccc2C(=O)N1C(c1ccncc1)c1ccc(Cl)cc1` (stereo not drawn) [2-[(4-chlorophenyl)(pyridin-4-yl)methyl]-N-(4-fluorobenzyl)-3-oxoisoindoline-1-carboxamide] returned an IC50 of 2100 nM.

In turn, `CC(CN1C(=O)c2ccccc2C1C(=O)NCc1ccc2c(c1)OCO2)c1ccc(Cl)cc1` (stereo not drawn) [N-(1,3-benzodioxol-5-ylmethyl)-2-[2-(4-chlorophenyl)propyl]-3-oxoisoindoline-1-carboxamide] gave an IC50 of 620 nM.

Regarding `Cc1c(O)ccc2c1C(=O)N(Cc1ccccc1-c1ccc(F)c(F)c1)C2C(=O)NC(C)(C)C` (stereo not drawn) [N-(tert-butyl)-2-[(3′,4′-difluorobiphenyl-2-yl)methyl]-5-hydroxy-4-methyl-3-oxoisoindoline-1-carboxamide], the midpoint of inhibition, the IC50, lay at 2000 nM.

Consider `O=C(NCCCC(F)(F)F)C1c2cc(Cl)ccc2C(=O)N1Cc1ccccc1C(F)(F)F` (stereo not drawn) [6-chloro-3-oxo-N-(4,4,4-trifluorobutyl)-2-[2-(trifluoromethyl)benzyl]isoindoline-1-carboxamide], for which the IC50 came out at 2500 nM. This IC50 and that of the compound before are within 1.5-fold of each other.

`CCCNC(=O)C1c2cc(Cl)ccc2C(=O)N1Cc1ccccc1-c1ccccc1` (stereo not drawn) [2-(biphenyl-2-ylmethyl)-6-chloro-3-oxo-N-propylisoindoline-1-carboxamide] displayed an IC50 of 1100 nM.

Turning to `CC(CN1C(=O)c2ccccc2C1C(=O)NCc1ccccc1Cl)c1ccc(Cl)cc1` (stereo not drawn) [N-(2-chlorobenzyl)-2-[2-(4-chlorophenyl)propyl]-3-oxoisoindoline-1-carboxamide], 750 nM corresponded to half-maximal inhibition (IC50).

`CCCCN(Cc1ccccc1)C(=O)C1c2ccccc2C(=O)N1CCc1ccc(Cl)cc1` (stereo not drawn) [N-benzyl-N-butyl-2-[2-(4-chlorophenyl)ethyl]-3-oxoisoindoline-1-carboxamide] came in with an IC50 of 340 nM.

The compound `CC(C)(CO)CN1C(=O)c2ccc(F)cc2C1C(=O)NCc1cccc(OC(F)F)c1` (stereo not drawn) [N-[3-(difluoromethoxy)benzyl]-6-fluoro-2-(3-hydroxy-2,2-dimethylpropyl)-3-oxoisoindoline-1-carboxamide] displayed an IC50 of 1400 nM.

Consider `CCCCNC(=O)C1c2ccccc2C(=O)N1CC(C)(C)c1ccc(Cl)cc1` (stereo not drawn) [N-butyl-2-[2-(4-chlorophenyl)-2-methyl-propyl]-3-oxo-1H-isoindole-1-carboxamide], for which half-maximal inhibition (IC50) required 530 nM. This IC50 lies about 2.6-fold lower than the previous one.

`O=C(NCc1ccc(F)cc1)C1c2ccccc2C(=O)N1C(c1ccccc1)c1ccccc1` (stereo not drawn) [2-(diphenylmethyl)-N-(4-fluorobenzyl)-3-oxoisoindoline-1-carboxamide] came in with an IC50 of 2500 nM. Compared with the last compound, the IC50 is about 4.7-fold higher.

For `Cc1c(O)ccc2c1C(=O)N(Cc1ccccc1-c1ccccc1)C2C(=O)NC(C)(C)C` (single isomer, unassigned) [(R or S) 2-(biphenyl-2-ylmethyl)-N-(tert-butyl)-5-hydroxy-4-methyl-3-oxoisoindoline-1-carboxamide], the IC50 turned out to be 1100 nM.

In turn, `N#Cc1cccc(CNC(=O)C2c3ccccc3C(=O)N2Cc2cccc(Cl)c2)c1` (stereo not drawn) [2-(3-chlorobenzyl)-N-(3-cyanobenzyl)-3-oxoisoindoline-1-carboxamide] gave an IC50 of 2000 nM.
